Active and inactive are the calls of the source. The rule behind the calls is not given here.
System: CCRIS mutagenicity, Ames/micronucleus/aberration tests
Experiment: CCRIS mutagenicity studies
[1] = Test System: AMES SALMONELLA TYPHIMURIUM, Strain/Indicator: TA98, Metabolic Activation: NONE, Method: STANDARD PLATE
[2] = Test System: AMES SALMONELLA TYPHIMURIUM, Strain/Indicator: TA98, Metabolic Activation: RAT, LIVER, S-9, AROCLOR 1254, Method: STANDARD PLATE
[3] = Test System: AMES SALMONELLA TYPHIMURIUM, Strain/Indicator: TA100, Metabolic Activation: NONE, Method: STANDARD PLATE
[4] = Test System: AMES SALMONELLA TYPHIMURIUM, Strain/Indicator: TA100, Metabolic Activation: RAT, LIVER, S-9, AROCLOR 1254, Method: STANDARD PLATE
[5] = Test System: AMES SALMONELLA TYPHIMURIUM, Strain/Indicator: TA1535, Metabolic Activation: NONE, Method: STANDARD PLATE
[6] = Test System: AMES SALMONELLA TYPHIMURIUM, Strain/Indicator: TA1535, Metabolic Activation: RAT, LIVER, S-9, AROCLOR 1254, Method: STANDARD PLATE
[7] = Test System: AMES SALMONELLA TYPHIMURIUM, Strain/Indicator: TA1537, Metabolic Activation: NONE, Method: STANDARD PLATE
[8] = Test System: AMES SALMONELLA TYPHIMURIUM, Strain/Indicator: TA1537, Metabolic Activation: RAT, LIVER, S-9, AROCLOR 1254, Method: STANDARD PLATE
[9] = Test System: AMES SALMONELLA TYPHIMURIUM, Strain/Indicator: TA1538, Metabolic Activation: NONE, Method: STANDARD PLATE
[10] = Test System: AMES SALMONELLA TYPHIMURIUM, Strain/Indicator: TA1538, Metabolic Activation: RAT, LIVER, S-9, AROCLOR 1254, Method: STANDARD PLATE
[11] = Test System: AMES SALMONELLA TYPHIMURIUM, Strain/Indicator: TA97, Metabolic Activation: NONE, Method: STANDARD PLATE
[12] = Test System: AMES SALMONELLA TYPHIMURIUM, Strain/Indicator: TA97, Metabolic Activation: RAT, LIVER, S-9, AROCLOR 1254, Method: STANDARD PLATE
[13] = Test System: AMES SALMONELLA TYPHIMURIUM, Strain/Indicator: TA102, Metabolic Activation: NONE, Method: STANDARD PLATE
[14] = Test System: AMES SALMONELLA TYPHIMURIUM, Strain/Indicator: TA102, Metabolic Activation: RAT, LIVER, S-9, AROCLOR 1254, Method: STANDARD PLATE
[15] = Test System: AMES SALMONELLA TYPHIMURIUM, Strain/Indicator: TA104, Metabolic Activation: NONE, Method: STANDARD PLATE

Measured: mutagenic call

O=[N+]([O-])C1=Cc2cc3cc4ccccc4cc3c3cccc1c23
inactive: [3] inactive; negative | [4] inactive; negative | [5] inactive; negative | [6] inactive; negative | [10] inactive; negative
active: [1] active; positive | [2] active; positive | [7] active; positive | [8] active; positive | [9] active; positive

CC(=O)OCc1ccco1
inactive: Test System: AMES SALMONELLA TYPHIMURIUM, Strain/Indicator: TA98, Metabolic Activation: HAMSTER, LIVER, S-9, AROCLOR 1254 (10%), Method: PREINCUBATION inactive; negative | Test System: AMES SALMONELLA TYPHIMURIUM, Strain/Indicator: TA98, Metabolic Activation: NONE, Method: PREINCUBATION inactive; negative | Test System: AMES SALMONELLA TYPHIMURIUM, Strain/Indicator: TA100, Metabolic Activation: HAMSTER, LIVER, AROCLOR 1254 (10%), Method: PREINCUBATION inactive; negative | Test System: AMES SALMONELLA TYPHIMURIUM, Strain/Indicator: TA1535, Metabolic Activation: HAMSTER, LIVER, S-9, AROCLOR 1254 (10%), Method: PREINCUBATION inactive; negative | Test System: AMES SALMONELLA TYPHIMURIUM, Strain/Indicator: TA1535, Metabolic Activation: NONE, Method: PREINCUBATION inactive; negative | Test System: AMES SALMONELLA TYPHIMURIUM, Strain/Indicator: TA1535, Metabolic Activation: RAT, LIVER, S-9, AROCLOR 1254 (10%), Method: PREINCUBATION inactive; negative | Test System: AMES SALMONELLA TYPHIMURIUM, Strain/Indicator: TA1537, Metabolic Activation: HAMSTER, LIVER, S-9, AROCLOR 1254 (10%), Method: PREINCUBATION inactive; negative | Test System: AMES SALMONELLA TYPHIMURIUM, Strain/Indicator: TA1537, Metabolic Activation: NONE, Method: PREINCUBATION inactive; negative | Test System: AMES SALMONELLA TYPHIMURIUM, Strain/Indicator: TA1537, Metabolic Activation: RAT, LIVER, S-9, AROCLOR 1254 (10%), Method: PREINCUBATION inactive; negative
active: Test System: AMES SALMONELLA TYPHIMURIUM, Strain/Indicator: TA98, Metabolic Activation: RAT, LIVER, S-9, AROCLOR 1254 (10%), Method: PREINCUBATION active; positive | Test System: AMES SALMONELLA TYPHIMURIUM, Strain/Indicator: TA100, Metabolic Activation: NONE, Method: PREINCUBATION active; positive | Test System: AMES SALMONELLA TYPHIMURIUM, Strain/Indicator: TA100, Metabolic Activation: RAT, LIVER, S-9, AROCLOR 1254 (10%), Method: PREINCUBATION active; positive

Cc1cc(-c2ccc(N/N=C3\C=Cc4c(S(=O)(=O)O)cc(S(=O)(=O)O)c(N)c4C3=O)c(C)c2)ccc1N/N=C1\C=Cc2c(S(=O)(=O)O)cc(S(=O)(=O)O)c(N)c2C1=O
inactive: Test System: Mouse lymphoma, Strain/Indicator: L5178Y (tk+/tk-), Metabolic Activation: Rat, Liver, S-9, Aroclor 1254, Method: Suspension/plate inactive; negative
active: Test System: AMES SALMONELLA TYPHIMURIUM, Strain/Indicator: TA98, Metabolic Activation: HAMSTER, LIVER, S-9, Method: PREINCUBATION (PRIVAL METHOD) active; positive | Test System: AMES SALMONELLA TYPHIMURIUM, Strain/Indicator: TA100, Metabolic Activation: HAMSTER, LIVER, S-9, Method: PREINCUBATION (PRIVAL METHOD) active; positive | Test System: MOUSE LYMPHOMA, Strain/Indicator: L5178Y (TK+/TK-), Metabolic Activation: NONE, Method: SUSPENSION/PLATE active; positive. reevaluation of results: equivocal

CCC(CCCC(=O)O)COC(=O)c1ccccc1C(=O)O (stereo not drawn)
inactive: [11] inactive; negative | [12] inactive; negative | Test System: AMES SALMONELLA TYPHIMURIUM, Strain/Indicator: TA97, Metabolic Activation: RAT, LIVER, S-9, DI(2-ETHYLHEXYL)PHTHALATE, Method: STANDARD PLATE inactive; negative | [1] inactive; negative | [2] inactive; negative | Test System: AMES SALMONELLA TYPHIMURIUM, Strain/Indicator: TA98, Metabolic Activation: RAT, LIVER, S-9, DI(2-ETHYLHEXYL)PHTHALATE, Method: STANDARD PLATE inactive; negative | [3] inactive; negative | [4] inactive; negative | Test System: AMES SALMONELLA TYPHIMURIUM, Strain/Indicator: TA100, Metabolic Activation: RAT, LIVER, S-9, DI(2-ETHYLHEXYL)PHTHALATE, Method: STANDARD PLATE inactive; negative | [13] inactive; negative | [14] inactive; negative | Test System: AMES SALMONELLA TYPHIMURIUM, Strain/Indicator: TA102, Metabolic Activation: RAT, LIVER, S-9, DI(2-ETHYLHEXYL)PHTHALATE, Method: STANDARD PLATE inactive; negative

C[C@@H]1C[C@@]2(C)[C@@H](CC[C@@H]3[C@@H]2CC[C@]2(C)[C@@H](O)CC[C@@H]32)CC1=O
inactive: [1] inactive; negative | Test System: AMES SALMONELLA TYPHIMURIUM, Strain/Indicator: TA98, Metabolic Activation: S-9, Method: STANDARD PLATE inactive; negative | [3] inactive; negative | Test System: AMES SALMONELLA TYPHIMURIUM, Strain/Indicator: TA100, Metabolic Activation: S-9, Method: STANDARD PLATE inactive; negative | Test System: E. COLI, Strain/Indicator: WP2 (HCR), Metabolic Activation: NONE, Method: STANDARD PLATE inactive; negative | Test System: E. COLI, Strain/Indicator: WP2 (HCR), Metabolic Activation: S-9, Method: STANDARD PLATE inactive; negative

CC1(C)CC(C(=O)NC(CO)C(O)CO)C(C)(C)N1[O] (stereo not drawn)
inactive: [13] inactive; negative | Test System: AMES SALMONELLA TYPHIMURIUM, Strain/Indicator: TA102, Metabolic Activation: XANTHINE OXIDASE, Method: STANDARD PLATE inactive; negative | [15] inactive; negative | Test System: AMES SALMONELLA TYPHIMURIUM, Strain/Indicator: TA104, Metabolic Activation: XANTHINE OXIDASE, Method: STANDARD PLATE inactive; negative | Test System: CHO, Strain/Indicator: CHO/6-THIOGUANINE, Metabolic Activation: NONE, Method: STANDARD PLATE inactive; negative | Test System: CHO, Strain/Indicator: CHO/6-THIOGUANINE, Metabolic Activation: RAT, LIVER, S-9, AROCLOR 1254, Method: STANDARD PLATE inactive; negative | Test System: CHO, Strain/Indicator: CHO/OUABAIN, Metabolic Activation: NONE, Method: STANDARD PLATE inactive; negative | Test System: CHO, Strain/Indicator: CHO/OUABAIN, Metabolic Activation: RAT, LIVER, S-9, AROCLOR 1254, Method: STANDARD PLATE inactive; negative

C[N+]1(C)CCOCC1
inactive: [11] inactive; negative | [12] inactive; negative | [1] inactive; negative | [2] inactive; negative | [3] inactive; negative | [4] inactive; negative | [13] inactive; negative | [14] inactive; negative | [15] inactive; negative | Test System: AMES SALMONELLA TYPHIMURIUM, Strain/Indicator: TA104, Metabolic Activation: RAT, LIVER, S-9, AROCLOR 1254, Method: STANDARD PLATE inactive; negative | [5] inactive; negative | [6] inactive; negative | [7] inactive; negative | [8] inactive; negative | [9] inactive; negative | [10] inactive; negative

Reference: PubChem BioAssay AID1259407 (Chemical Carcinogenesis Research Information System (CCRIS), 2018)
